These results are taken from patent US10961200B2, “Small molecule inhibitors of lactate dehydrogenase and methods of use thereof” (THE UNITED STATES OF AMERICA, AS REPRESENTED BY THE …, priority 2014, dated 2021).

Each structure is given as a SMILES string.

The target in one assay is Human LDHA (Homo sapiens (Human), UniProt P00338). Kind of assay: human LDHA primary biochemical assay (resazurin/diaphorase coupled, fluorescence). Particulars: LDHA inhibitory activity, assay of Example 1; activity level classes. An excerpt: Test compounds were placed in a Greiner Bio-One (Monroe, N.C.) 1536-well black solid bottom assay plate. 200 millimolar (mM) Tris HCl, pH 7.4, 100 micromolar […] EDTA and 0.01% TWEEN-20™, final concentration, was used as the assay buffer. The LDHA reagent was 2 nanomolar (nM) Human LDHA (Meridian Life Science, Inc., Memphis, Tenn.), final concentration, in assay buffer.
Usually IC50 stands for the concentration that gives 50% inhibition. In turn, `Cn1ncc(C(=O)n2nc(-c3ccccc3)c(Cc3ccc(S(N)(=O)=O)cc3)c2N)c1N` [Compound 143, 4-((5-amino-1-(5-amino-1-methyl-1H-pyrazole-4-carbonyl)-3-phenyl-1H-pyrazol-4-yl)methyl)benzenesulfonamide] registered an IC50 above 57 µM.
Still for that read-out and setting: the result for `Nc1c(Cc2ccc(S(N)(=O)=O)cc2)c(-c2ccccc2)nn1-c1cc(C(=O)O)ccn1` [Compound 145, 2-(5-amino-3-phenyl-4-(4-sulfamoylbenzyl)-1H-pyrazol-1-yl)isonicotinic acid] reads above 57 µM.
`Nc1c(Cc2ccc(S(N)(=O)=O)cc2)c(-c2ccccc2)nn1C(=O)c1cccc2cc[nH]c12` [Compound 150, 4-((5-ammo-1-(1H-indole-7-carbonyl)-3-phenyl-1H-pyrazol-4-yl)methyl)benzenesulfonamide] registered an IC50 above 57 µM.
Take `Nc1c(Cc2ccc(S(N)(=O)=O)cc2)c(-c2ccccc2)nn1-c1nccc(O)n1` [Compound 152, 4-((5-amino-1-(4-hydroxypyrimidin-2-yl)-3-phenyl-1H-pyrazol-4-yl)methyl)benzenesulfonamide]: the IC50 was above 57 µM.
The same measure, in the same setting: the value for `NS(=O)(=O)c1ccc(Nc2c[nH]nc2-c2cccc(-c3ccccc3)c2)cc1` [Compound 161] was above 57 µM.
On the same count and under the same terms, the value for `CCOC(=O)c1csc(-n2nc(C3CC3)c(Oc3ccc(S(N)(=O)=O)cc3)c2-c2ccccc2)n1` [Compound 163, ethyl 2-(3-cyclopropyl-5-phenyl-4-(4-sulfamoylphenoxy)-1H-pyrazol-1-yl)thiazole-4-carboxylate] was above 57 µM; that for `NS(=O)(=O)c1ccc(Oc2c(-c3ccccc3)nn(-c3nc(C(=O)O)cs3)c2C2CC2)cc1` [Compound 166, 2-(5-cyclopropyl-3-phenyl-4-(4-sulfamoylphenoxy)-1H-pyrazol-1-yl)thiazole-4-carboxylic acid] was below 0.1 µM; that for `C=Cc1c(Cc2ccc(S(N)(=O)=O)cc2)c(-c2ccccc2)nn1-c1nc(C(=O)O)cs1` [Compound 167, 2-(3-phenyl-4-(4-sulfamoylbenzyl)-5-vinyl-1H-pyrazol-1-yl)thiazole-4-carboxylic acid] was below 0.1 µM.
In turn, `CCOC(=O)c1csc(-n2nc(C3CCCC3)c(Oc3ccc(S(N)(=O)=O)cc3)c2-c2ccccc2)n1` [Compound 168, ethyl 2-(3-cyclopentyl-5-phenyl-4-(4-sulfamoylphenoxy)-1H-pyrazol-1-yl)thiazole-4-carboxylate] had an IC50 above 57 µM.
On the same count and under the same terms, the result for `CCOC(=O)c1csc(-n2nc(-c3ccccc3)c(Oc3ccc(S(N)(=O)=O)cc3)c2C2CCCC2)n1` [Compound 169, ethyl 2-(5-cyclopentyl-3-phenyl-4-(4-sulfamoylphenoxy)-1H-pyrazol-1-yl)thiazole-4-carboxylate] reads above 57 µM; that for `NS(=O)(=O)c1ccc(Oc2c(C3CCCC3)nn(-c3nc(C(=O)O)cs3)c2-c2ccccc2)cc1` [Compound 174, 2-(3-cyclopentyl-5-phenyl-4-(4-sulfamoylphenoxy)-1H-pyrazol-1-yl)thiazole-4-carboxylic acid], 1 to 57 µM; that for `CCOC(=O)c1csc(-n2nc(C3CC3)c(Cc3ccc(S(N)(=O)=O)cc3)c2-c2cccc(-c3ccccc3)c2)n1` [Compound 180, ethyl 2-(5-([1,1′-biphenyl]-3-yl)-3-cyclopropyl-4-(4-sulfamoylbenzyl)-1H-pyrazol-1-yl)thiazole-4-carboxylate], above 57 µM.
`CCOC(=O)c1csc(-n2nc(-c3cccc(-c4ccccc4)c3)c(Cc3ccc(S(N)(=O)=O)cc3)c2C2CC2)n1` [Compound 181, ethyl 2-(3-([1,1′-biphenyl]-3-yl)-5-cyclopropyl-4-(4-sulfamoylbenzyl)-1H-pyrazol-1-yl)thiazole-4-carboxylate] gave an IC50 above 57 µM.

Staying with this assay, now noted: read-out: Inhibitory activity IC50.
In the case of `Nc1c(Cc2ccc(S(N)(=O)=O)cc2)c(-c2ccccc2)nn1-c1cccc(C(=O)O)n1` [Compound 144, 6-(5-amino-3-phenyl-4-(4-sulfamoylbenzyl)-1H-pyrazol-1-yl)picolinic acid], the IC50 lay in the range of 1 to 57 µM.
The same measure, in the same setting: the value for `Cc1oc(=O)oc1COC(=O)c1csc(-n2cc(Cc3ccc(S(N)(=O)=O)cc3)c(-c3ccccc3)n2)n1` [Compound 149, (5-methyl-2-oxo-1,3-dioxol-4-yl)methyl 2-(3-phenyl-4-(4-sulfamoylbenzyl)-1H-pyrazol-1-yl)thiazole-4-carboxylate] was 0.1 to 1 µM.
As for `CCOC(=O)c1coc(-n2nc(-c3ccccc3)c(Cc3ccc(S(N)(=O)=O)cc3)c2N)n1` [Compound 151, ethyl 2-(5-amino-3-phenyl-4-(4-sulfamoylbenzyl)-1H-pyrazol-1-yl)oxazole-4-carboxylate], the half-inhibitory concentration (IC50) is 1 to 57 µM.
Regarding `Nc1c(Cc2ccc(S(N)(=O)=O)cc2)c(-c2ccccc2)nn1-c1nc(C(=O)O)co1` [Compound 153, 2-(5-amino-3-phenyl-4-(4-sulfamoylbenzyl)-1H-pyrazol-1-yl)oxazole-4-carboxylic acid], the IC50 fell in the range of 0.1 to 1 µM.
In the case of `NS(=O)(=O)c1ccc(Cc2cn(-c3nc(C(O)C(F)(F)F)cs3)nc2-c2ccccc2)cc1` (stereo not shown) [Compound 154, 4-((3-phenyl-1-(4-(2,2,2-trifluoro-1-hydroxyethyl)thiazol-2-yl)-1H-pyrazol-4-yl)methyl)benzenesulfonamide], the IC50 lay within 0.1 to 1 µM.
Turning to `NS(=O)(=O)c1ccc(Cc2c(-c3ccccc3)nn(-c3nc(C(=O)O)cs3)c2-c2ccccc2)cc1` [Compound 155, 2-(3,5-diphenyl-4-(4-sulfamoylbenzyl)-1H-pyrazol-1-yl)thiazole-4-carboxylic acid], the IC50 is below 0.1 µM.
Turning to `NS(=O)(=O)c1ccc(Cc2c(-c3ccccc3)nn(-c3nc(C(=O)O)cs3)c2-c2ccncc2)cc1` [Compound 156, 2-(3-phenyl-5-(pyridin-4-yl)-4-(4-sulfamoylbenzyl)-1H-pyrazol-1-yl)thiazole-4-carboxylic acid], the IC50 was in the range of 1 to 57 µM.
Still for that read-out and setting: the result for `CC(C)c1nn(-c2nc(C(=O)O)cs2)c(-c2ccccc2)c1Cc1ccc(S(N)(=O)=O)cc1` [Compound 158, 2-(3-isopropyl-5-phenyl-4-(4-sulfamoylbenzyl)-1H-pyrazol-1-yl)thiazole-4-carboxylic acid] reads 1 to 57 µM; that for `CC(C)c1c(Cc2ccc(S(N)(=O)=O)cc2)c(-c2ccccc2)nn1-c1nc(C(=O)O)cs1` [Compound 159, 2-(5-isopropyl-3-phenyl-4-(4-sulfamoylbenzyl)-1H-pyrazol-1-yl)thiazole-4-carboxylic acid], 0.1 to 1 µM; that for `CCOC(=O)c1csc(-n2cc(Nc3ccc(S(N)(=O)=O)cc3)c(-c3cccc(-c4ccccc4)c3)n2)n1` [Compound 162, ethyl 2-(3-([1,1′-biphenyl]-3-yl)-4-((4-sulfamoylphenyl)amino)-1H-pyrazol-1-yl)thiazole-4-carboxylate], 1 to 57 µM.
The same measure, in the same setting: the value for `CCOC(=O)c1csc(-n2nc(-c3ccccc3)c(Oc3ccc(S(N)(=O)=O)cc3)c2C2CC2)n1` [Compound 164, ethyl 2-(5-cyclopropyl-3-phenyl-4-(4-sulfamoylphenoxy)-1H-pyrazol-1-yl)thiazole-4-carboxylate] was 1 to 57 µM; that for `NS(=O)(=O)c1ccc(Oc2c(C3CC3)nn(-c3nc(C(=O)O)cs3)c2-c2ccccc2)cc1` [Compound 165] was 1 to 57 µM.
Same read-out and setting: the result for `NS(=O)(=O)c1ccc(Oc2c(C3CCCC3)nn(-c3nc(C(=O)O)cs3)c2-c2ccccc2)cc1` [Compound 170, 2-(3-cyclopentyl-5-phenyl-4-(4-sulfamoylphenoxy)-1H-pyrazol-1-yl)thiazole-4-carboxylic acid] reads 1 to 57 µM; that for `NS(=O)(=O)c1ccc(Oc2c(-c3ccccc3)nn(-c3nc(C(=O)O)cs3)c2C2CCCC2)cc1` [Compound 171, 2-(5-cyclopentyl-3-phenyl-4-(4-sulfamoylphenoxy)-1H-pyrazol-1-yl)thiazole-4-carboxylic acid], 0.1 to 1 µM; that for `NS(=O)(=O)c1ccc(Oc2c(C3CCCCC3)nn(-c3nc(C(=O)O)cs3)c2-c2ccccc2)cc1` [Compound 172, 2-(3-cyclohexyl-5-phenyl-4-(4-sulfamoylphenoxy)-1H-pyrazol-1-yl)thiazole-4-carboxylic acid], 1 to 57 µM.
As for `NS(=O)(=O)c1ccc(Oc2c(-c3ccccc3)nn(-c3nc(C(=O)O)cs3)c2C2CCCCC2)cc1` [Compound 173, 2-(5-cyclohexyl-3-phenyl-4-(4-sulfamoylphenoxy)-1H-pyrazol-1-yl)thiazole-4-carboxylic acid], the IC50 was in the range of 1 to 57 µM.
Turning to `NS(=O)(=O)c1ccc(Cc2c(-c3ccccc3)nn(-c3nc(C(=O)O)cs3)c2C2CCCC2)cc1` [Compound 175, 2-(5-cyclopentyl-3-phenyl-4-(4-sulfamoylbenzyl)-1H-pyrazol-1-yl)thiazole-4-carboxylic acid], the IC50 was in the range of 0.1 to 1 µM.
Consider `NS(=O)(=O)c1ccc(Cc2c(C3CCCCC3)nn(-c3nc(C(=O)O)cs3)c2-c2ccccc2)cc1` [Compound 176, 2-(3-cyclohexyl-5-phenyl-4-(4-sulfamoylbenzyl)-1H-pyrazol-1-yl)thiazole-4-carboxylic acid], for which the IC50 was in the range of 1 to 57 µM.
Take `NS(=O)(=O)c1ccc(Cc2c(-c3ccccc3)nn(-c3nc(C(=O)O)cs3)c2C2CCCCC2)cc1` [Compound 177, 2-(5-cyclohexyl-3-phenyl-4-(4-sulfamoylbenzyl)-1H-pyrazol-1-yl)thiazole-4-carboxylic acid]: the IC50 fell in the range of 1 to 57 µM.
Same read-out and setting: the value for `NS(=O)(=O)c1ccc(Cc2c(-c3ccccc3)nn(-c3nc(C(=O)O)cs3)c2C2CO2)cc1` (stereo not shown) [Compound 178, 2-(5-(oxiran-2-yl)-3-phenyl-4-(4-sulfamoylbenzyl)-1H-pyrazol-1-yl)thiazole-4-carboxylic acid] was 1 to 57 µM; that for `NS(=O)(=O)c1ccc(Cc2c(-c3ccccc3)nn(-c3nc(C(=O)O)cs3)c2C#Cc2ccccc2)cc1` [Compound 179, 2-(3-phenyl-5-(phenylethynyl)-4-(4-sulfamoylbenzyl)-1H-pyrazol-1-yl)thiazole-4-carboxylic acid] was 1 to 57 µM.
